Experimental data as given in paper PMC4794675, “Generation and Characterization of Monoclonal Antibodies against a Cyclic Variant of Hepatitis C Virus E2 Epitope 412-422” (Journal of Virology, 2016).
Bridge positions count the residues as written; N and C are the ends. Peptide text beside a SMILES is read from it.

Tested on: Fab C2
Assay: SPR epitope mapping: binding of epitope I peptide variants to immobilized Fab C2
Design: species or system mouse; Ka, binding to Fab C2: unit not given here
Details: for Ka, binding to Fab C2 / Kd, binding to Fab C2: Fab C2 immobilized on CM5 chip, 25°C; for Kd: read-out: KD, binding to Fab C2, Fab C2 immobilized on CM5 chip, peptides 125 nM to 5 μM, HBS buffer, 25°C, NB = no binding
Experimental: All SPR analyses were performed on a Biacore 3000 instrument from GE Healthcare, using CM5 sensor chips and the HBS buffer certified for use with this instrument (20 mM HEPES, 0.15 M NaCl, pH 7.2, 0.005% polysorbate 20), at 25°C. Immobilization was carried out by means of the canonical amine-coupling chemistry using the surface immobilization wizard procedure operating at 5 μl/min. Channels were activated with a mixture of 1-ethyl-3-(3-dimethylaminopropyl)-carbodiimide and N-hydroxysuccinimide for 7 min; then, the ligand, which had been appropriately diluted in the preselected sodium acetate buffer, was coupled until a typical level of 500 to 600 response units (RU) was achieved. The remaining active ester groups were blocked with 1 M ethanolamine HCl, pH 8.5. […] The same procedure was applied to prepare an sE2-functionalized sensor chip. An IgG1 isotype-matched antibody was used as a negative control at a concentration of 5.0 μM. […] An underivatized surface was prepared on every sensor chip and used as a blank control. All analyses were carried out at a flow rate of 20 μl/min, and a constant volume of 60 μl of protein or peptide solution appropriately diluted in the HBS running buffer was injected.
For every analysis, experimental sensorgrams were aligned, the blank signal was subtracted, and the sensorgrams were overlapped. All mathematical manipulations and fitting of the data were performed using BIAevaluation (version 4.1) software (GE Healthcare).
To further investigate which peptide residues were mostly involved in the binding with the antibodies, we designed and prepared a panel of alanine-mutated cyclic peptides (Table 4). […] All peptides were tested at concentrations ranging from 125 nM to 5 μM.

CC[C@H](C)[C@@H]1NC(=O)[C@H](CC(C)C)NC(=O)[C@H](CCC(N)=O)NC(=O)[C@@H](NC(=O)[C@H](CCCCN)NC(=O)[C@H](CCCCN)NC(C)=O)CSSC[C@@H](C(N)=O)NC(=O)[C@H]([C@@H](C)CC)NC(=O)[C@H](Cc2c[nH]cn2)NC(=O)[C@H](Cc2c[nH]c3ccccc23)NC(=O)[C@H](CO)NC(=O)CNC(=O)[C@H](C)NC(=O)[C@H](C)NC(=O)[C@H](C)NC1=O [C-epitope I mutant II] (Ac-KKCQLIAAAGSWHIC-NH2; disulfide 3-15; N-terminus and C-terminus assumed)
Ka, binding to Fab C2 (peptides 125 nM to 5 μM): 3200 s⁻¹
Kd, binding to Fab C2 (peptides 125 nM to 5 μM): 4.73e-05 M⁻¹ s⁻¹

CC[C@H](C)[C@@H]1NC(=O)[C@H](Cc2c[nH]cn2)NC(=O)[C@H](Cc2c[nH]c3ccccc23)NC(=O)[C@H](CO)NC(=O)CNC(=O)[C@H](CC(N)=O)NC(=O)[C@H]([C@@H](C)O)NC(=O)[C@H](CC(N)=O)NC(=O)[C@H](C)NC(=O)[C@H](C)NC(=O)[C@H](C)NC(=O)[C@@H](NC(=O)[C@H](CCCCN)NC(=O)[C@H](CCCCN)NC(C)=O)CSSC[C@@H](C(N)=O)NC1=O [C-epitope I mutant I] (Ac-KKCAAANTNGSWHIC-NH2; disulfide 3-15; N-terminus and C-terminus assumed)
Ka, binding to Fab C2 (peptides 125 nM to 5 μM): 1.22e+06 s⁻¹
Kd, binding to Fab C2 (peptides 125 nM to 5 μM): 0.553 M⁻¹ s⁻¹

CC[C@H](C)[C@@H]1NC(=O)[C@H](CC(C)C)NC(=O)[C@H](CCC(N)=O)NC(=O)[C@@H](NC(=O)[C@H](CCCCN)NC(=O)[C@H](CCCCN)NC(C)=O)CSSC[C@@H](C(N)=O)NC(=O)[C@H](C)NC(=O)[C@H](C)NC(=O)[C@H](C)NC(=O)[C@H](CO)NC(=O)CNC(=O)[C@H](CC(N)=O)NC(=O)[C@H]([C@@H](C)O)NC(=O)[C@H](CC(N)=O)NC1=O [C-epitope I mutant IV] (Ac-KKCQLINTNGSAAAC-NH2; disulfide 3-15; N-terminus and C-terminus assumed)
Ka, binding to Fab C2 (peptides 125 nM to 5 μM): 0
Kd, binding to Fab C2 (peptides 125 nM to 5 μM): 0 M⁻¹ s⁻¹
affinity/binding to Fab C2 relative to wild type (Fab C2 immobilized, peptides 125 nM to 5 μM): abolished
Kd: > 5 µM

CC[C@H](C)[C@H](NC(=O)[C@H](Cc1c[nH]cn1)NC(=O)[C@H](Cc1c[nH]c2ccccc12)NC(=O)[C@H](CO)NC(=O)CNC(=O)[C@H](CC(N)=O)NC(=O)[C@@H](NC(=O)[C@H](CC(N)=O)NC(=O)[C@@H](NC(=O)[C@H](CC(C)C)NC(=O)[C@H](CCC(N)=O)NC(=O)[C@H](CSC)NC(=O)[C@H](CCCCN)NC(=O)[C@H](CCCCN)NC(C)=O)[C@@H](C)CC)[C@@H](C)O)C(=O)N[C@@H](CSC)C(N)=O [L-epitope I] (Ac-KKC(Me)QLINTNGSWHIC(Me)-NH2; N-terminus and C-terminus assumed)
Ka, binding to Fab C2 (peptides 125 nM to 5 μM): 0
Kd, binding to Fab C2 (peptides 125 nM to 5 μM): 0 M⁻¹ s⁻¹
Kd: > 5 µM

CC[C@H](C)[C@@H]1NC(=O)[C@H](Cc2c[nH]cn2)NC(=O)[C@H](Cc2c[nH]c3ccccc23)NC(=O)[C@H](CCC(=O)O)NC(=O)[C@H](CCC(=O)O)NC(=O)[C@H](CC(N)=O)NC(=O)[C@H]([C@@H](C)O)NC(=O)[C@H](CC(N)=O)NC(=O)[C@H]([C@@H](C)CC)NC(=O)[C@H](CC(C)C)NC(=O)[C@H](CCC(N)=O)NC(=O)[C@@H](NC(=O)[C@H](CCCCN)NC(=O)[C@H](CCCCN)NC(C)=O)CSSC[C@@H](C(N)=O)NC1=O [C-epitope I mutant III] (Ac-KKCQLINTNEEWHIC-NH2; disulfide 3-15; N-terminus and C-terminus assumed)
Ka, binding to Fab C2 (peptides 125 nM to 5 μM): 16200 s⁻¹
Kd, binding to Fab C2 (peptides 125 nM to 5 μM): 0.0754 M⁻¹ s⁻¹
